Values after ≈ are worked out from the molar mass of the structure shown.
Experiments:
[1] = tested on: Candida albicans; test: Antifungal activity against Candida albicans sc5314 by CLSI based broth microdilution method; format: functional
[2] = tested on: Candida albicans; test: Antifungal activity against Candida albicans by CLSI based broth microdilution method; format: functional
[3] = tested on: Nakaseomyces glabratus; test: Antifungal activity against Candida glabrata by CLSI based broth microdilution method; format: functional
[4] = tested on: Candida parapsilosis; test: Antifungal activity against Candida parapsilosis by CLSI based broth microdilution method; format: functional; conditions: Lodderomyces parapsilosis
[5] = tested on: Pichia kudriavzevii; test: Antifungal activity against Pichia kudriavzevii by CLSI based broth microdilution method; format: functional
[6] = tested on: [Candida] zeylanoides; test: Antifungal activity against Candida zeylanoides by CLSI based broth microdilution method; format: functional; conditions: Dujonia zeylanoides
[7] = tested on: Cryptococcus neoformans; test: Antifungal activity against Cryptococcus neoformans by CLSI based broth microdilution method; format: functional
[8] = tested on: Aspergillus fumigatus; test: Antifungal activity against Aspergillus fumigatus by CLSI based broth microdilution method; format: functional
[9] = tested on: Candida albicans; test: Antifungal activity against FCZ-resistant Candida albicans CaR by CLSI based broth microdilution method; format: functional
[10] = tested on: Candida albicans; test: Antifungal activity against FCZ-resistant Candida albicans 17# by CLSI based broth microdilution method; format: functional
[11] = tested on: Candida albicans; test: Antifungal activity against FCZ-resistant Candida albicans 632 by CLSI based broth microdilution method; format: functional
[12] = tested on: Candida albicans; test: Antifungal activity against FCZ-resistant Candida albicans 901 by CLSI based broth microdilution method; format: functional
[13] = tested on: Candida albicans; test: Antifungal activity against FCZ-resistant Candida albicans 904 by CLSI based broth microdilution method; format: functional
[14] = molecular target: T1, Lanosterol 14-alpha demethylase (Candida albicans (strain SC5314 / ATCC MYA-2876) (Yeast), UniProt P10613); test: Inhibition of CYP51 of Candida albicans ATCC SC5314 assessed as decrease in ergosterol level by measuring residual activity at 1 ug/ml incubated for 16 hrs by GC-MS analysis (reference value: 98.3 %); conditions: at 1 µg/mL
[15] = molecular target: T1, Lanosterol 14-alpha demethylase; test: Inhibition of CYP51 of Candida albicans ATCC SC5314 assessed as decrease in ergosterol level by measuring residual activity at 2 ug/ml incubated for 16 hrs by GC-MS analysis (reference value: 98.3 %); conditions: at 2 µg/mL
[16] = molecular target: T1, Lanosterol 14-alpha demethylase; test: Inhibition of CYP51 of Candida albicans ATCC SC5314 assessed as decrease in ergosterol level by measuring residual activity at 4 ug/ml incubated for 16 hrs by GC-MS analysis (reference value: 98.3 %); conditions: at 4 µg/mL
[17] = molecular target: T1, Lanosterol 14-alpha demethylase; test: Inhibition of CYP51 of Candida albicans ATCC SC5314 assessed as decrease in ergosterol level by measuring residual activity at 8 ug/ml incubated for 16 hrs by GC-MS analysis (reference value: 98.3 %); conditions: at 8 µg/mL
[18] = molecular target: T1, Lanosterol 14-alpha demethylase; test: Inhibition of CYP51 of Candida albicans ATCC SC5314 assessed as increase in obtusifoliol level at 1 ug/ml incubated for 16 hrs by GC-MS analysis (reference value: 0 %); design: scale not given: the % may be the effect or the level left; conditions: at 1 µg/mL
[19] = molecular target: T1, Lanosterol 14-alpha demethylase; test: Inhibition of CYP51 of Candida albicans ATCC SC5314 assessed as increase in obtusifoliol level at 2 ug/ml incubated for 16 hrs by GC-MS analysis (reference value: 0 %); design: scale not given: the % may be the effect or the level left; conditions: at 2 µg/mL
[20] = molecular target: T1, Lanosterol 14-alpha demethylase; test: Inhibition of CYP51 of Candida albicans ATCC SC5314 assessed as increase in obtusifoliol level at 4 ug/ml incubated for 16 hrs by GC-MS analysis (reference value: 0 %); design: scale not given: the % may be the effect or the level left; conditions: at 4 µg/mL
[21] = molecular target: T1, Lanosterol 14-alpha demethylase; test: Inhibition of CYP51 of Candida albicans ATCC SC5314 assessed as increase in obtusifoliol level at 8 ug/ml incubated for 16 hrs by GC-MS analysis (reference value: 0 %); design: scale not given: the % may be the effect or the level left; conditions: at 8 µg/mL
[22] = molecular target: T1, Lanosterol 14-alpha demethylase; test: Inhibition of CYP51 of Candida albicans ATCC SC5314 assessed as increase in lanosterol level at 1 ug/ml incubated for 16 hrs by GC-MS analysis (reference value: 1.7 %); design: scale not given: the % may be the effect or the level left; conditions: at 1 µg/mL
[23] = molecular target: T1, Lanosterol 14-alpha demethylase; test: Inhibition of CYP51 of Candida albicans ATCC SC5314 assessed as increase in lanosterol level at 2 ug/ml incubated for 16 hrs by GC-MS analysis (reference value: 1.7 %); design: scale not given: the % may be the effect or the level left; conditions: at 2 µg/mL
[24] = molecular target: T1, Lanosterol 14-alpha demethylase; test: Inhibition of CYP51 of Candida albicans ATCC SC5314 assessed as increase in lanosterol level at 4 ug/ml incubated for 16 hrs by GC-MS analysis (reference value: 1.7 %); design: scale not given: the % may be the effect or the level left; conditions: at 4 µg/mL
[25] = molecular target: T1, Lanosterol 14-alpha demethylase; test: Inhibition of CYP51 of Candida albicans ATCC SC5314 assessed as increase in lanosterol level at 8 ug/ml incubated for 16 hrs by GC-MS analysis (reference value: 1.7 %); design: scale not given: the % may be the effect or the level left; conditions: at 8 µg/mL
[26] = molecular target: T1, Lanosterol 14-alpha demethylase; test: Inhibition of CYP51 of Candida albicans ATCC SC5314 assessed as increase in eburicol level at 1 ug/ml incubated for 16 hrs by GC-MS analysis (reference value: 0 %); design: scale not given: the % may be the effect or the level left; conditions: at 1 µg/mL
[27] = molecular target: T1, Lanosterol 14-alpha demethylase; test: Inhibition of CYP51 of Candida albicans ATCC SC5314 assessed as increase in eburicol level at 2 ug/ml incubated for 16 hrs by GC-MS analysis (reference value: 0 %); design: scale not given: the % may be the effect or the level left; conditions: at 2 µg/mL
[28] = molecular target: T1, Lanosterol 14-alpha demethylase; test: Inhibition of CYP51 of Candida albicans ATCC SC5314 assessed as increase in eburicol level at 4 ug/ml incubated for 16 hrs by GC-MS analysis (reference value: 0 %); design: scale not given: the % may be the effect or the level left; conditions: at 4 µg/mL
[29] = molecular target: T1, Lanosterol 14-alpha demethylase; test: Inhibition of CYP51 of Candida albicans ATCC SC5314 assessed as increase in eburicol level at 8 ug/ml incubated for 16 hrs by GC-MS analysis (reference value: 0 %); design: scale not given: the % may be the effect or the level left; conditions: at 8 µg/mL
[30] = tested on: Candida albicans; test: Antibiofilm activity against Candida albicans SC5314 assessed as sessile minimum inhibitory concentration measured after 1.5 hrs by XTT assay; format: functional
[31] = tested on: Candida albicans; test: Antibiofilm activity against Candida albicans SC5314 assessed as sessile minimum inhibitory concentration measured after 3 hrs by XTT assay; format: functional
[32] = tested on: Candida albicans; test: Antibiofilm activity against Candida albicans SC5314 assessed as sessile minimum inhibitory concentration measured after 6 hrs by XTT assay; format: functional
[33] = tested on: Candida albicans; test: Antibiofilm activity against Candida albicans SC5314 assessed as sessile minimum inhibitory concentration measured after 24 hrs by XTT assay; format: functional
[34] = tested on: Candida albicans; test: Antibiofilm activity against Candida albicans CPCC400616 assessed as sessile minimum inhibitory concentration measured after 1.5 hrs by XTT assay; format: functional
[35] = tested on: Candida albicans; test: Antibiofilm activity against Candida albicans CPCC400616 assessed as sessile minimum inhibitory concentration measured after 3 hrs by XTT assay; format: functional
[36] = tested on: Candida albicans; test: Antibiofilm activity against Candida albicans CPCC400616 assessed as sessile minimum inhibitory concentration measured after 6 hrs by XTT assay; format: functional
[37] = tested on: Candida albicans; test: Antibiofilm activity against Candida albicans CPCC400616 assessed as sessile minimum inhibitory concentration measured after 24 hrs by XTT assay; format: functional

T1 sequence (P10613 whole entry): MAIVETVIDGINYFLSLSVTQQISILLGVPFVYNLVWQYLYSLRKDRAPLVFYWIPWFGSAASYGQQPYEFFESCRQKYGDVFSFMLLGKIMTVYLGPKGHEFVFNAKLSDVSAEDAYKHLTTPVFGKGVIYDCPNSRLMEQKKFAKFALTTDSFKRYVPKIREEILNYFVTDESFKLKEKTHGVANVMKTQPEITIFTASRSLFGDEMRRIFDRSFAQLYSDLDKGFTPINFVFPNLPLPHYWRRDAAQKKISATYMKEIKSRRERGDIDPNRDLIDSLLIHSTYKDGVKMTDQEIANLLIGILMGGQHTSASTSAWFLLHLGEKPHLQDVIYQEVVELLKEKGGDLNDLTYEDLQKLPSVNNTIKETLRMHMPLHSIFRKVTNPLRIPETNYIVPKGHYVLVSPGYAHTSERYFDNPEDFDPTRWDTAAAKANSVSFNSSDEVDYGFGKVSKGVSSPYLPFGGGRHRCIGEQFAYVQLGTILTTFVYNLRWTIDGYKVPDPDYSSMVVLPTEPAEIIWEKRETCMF

OC(Cn1cncn1)(Cn1cncn1)c1ccc(F)cc1F [FLUCONAZOLE]
MIC [1]: 1 µg/mL (≈ 3.27 µM) | MIC [2]: 4 µg/mL (≈ 13.1 µM) | MIC [3]: 32 µg/mL (≈ 104 µM) | MIC [4]: 4 µg/mL (≈ 13.1 µM) | MIC [5]: 32 µg/mL (≈ 104 µM) | MIC [6]: 2 µg/mL (≈ 6.53 µM) | MIC [7]: 4 µg/mL (≈ 13.1 µM) | MIC [8]: > 64 µg/mL | MIC [9]: > 64 µg/mL | MIC [10]: > 64 µg/mL | MIC [11]: > 64 µg/mL | MIC [12]: > 64 µg/mL | MIC [13]: > 64 µg/mL | Activity [14]: 3.9% | Activity [15]: 2.5% | Activity [16]: 2.5% | Activity [17]: 1.1% | Activity [18]: 13.9% | Activity [19]: 13.1% | Activity [20]: 12.5% | Activity [21]: 14.8% | Activity [22]: 14.9% | Activity [23]: 15.7% | Activity [24]: 15.4% | Activity [25]: 14.3% | Activity [26]: 67.3% | Activity [27]: 68.7% | Activity [28]: 69.6% | Activity [29]: 69.9% | MIC50 [30]: > 1020 µg/mL | MIC80 [30]: > 1020 µg/mL | MIC50 [31]: > 1020 µg/mL | MIC80 [31]: > 1020 µg/mL | MIC50 [32]: > 1020 µg/mL | MIC80 [32]: > 1020 µg/mL | MIC50 [33]: > 1020 µg/mL | MIC80 [33]: > 1020 µg/mL | MIC50 [34]: > 1020 µg/mL | MIC80 [34]: > 1020 µg/mL | MIC50 [35]: > 1020 µg/mL | MIC80 [35]: > 1020 µg/mL | MIC50 [36]: > 1020 µg/mL | MIC80 [36]: > 1020 µg/mL | MIC50 [37]: > 1020 µg/mL | MIC80 [37]: > 1020 µg/mL
